Several values for one entry are separate records, joined by “and”; a condition that tells them apart may be missing. Equal entries are not always repeated. Blank lines part the entries; values can stand above or below the molecule they belong to.
Assays:
cortical synaptosomes = assay: Synaptosomal respiration (Seahorse XF24); assay type: cell-based, mouse; settings: 100 µM iGP-1, 0.5 mM aminooxyacetate
Experimental: Synaptosomal respiration was tested in the Seahorse XF24 using published protocols, [41]. Synaptosomes (20 or 25 µg protein) were attached to polyethyleneimine and Geltrex-coated Seahorse plates by centrifugation in ionic medium, [41] containing 10 mM glucose. Attachment buffer was carefully replaced with ionic buffer containing DMSO, 100 µM iGP-1, 0.5 mM aminooxyacetate, or iGP-1 with aminooxyacetate, and either 10 mM pyruvate or 15 mM glucose. Plates were equilibrated for 20 min at 37°C then loaded into the instrument followed by measurement of basal respiration and injection of 5 µM FCCP (to induce maximal, uncoupled respiration) with 4 µg ⋅ mL^−1 oligomycin (to prevent compensatory reversal of ATP synthase). In some experiments, 10 mM oxamate was added with the FCCP/oligomycin to minimize regeneration of cytosolic NAD^+ by lactate dehydrogenase. Inhibition of the malate-aspartate shuttle was defined as the difference between maximal rates ± aminooxyacetate, expressed as % of control. Inhibition of the glycerol phosphate shuttle was the difference between maximal rates with aminooxyacetate ± iGP-1, as % of control.

[1] = target: T1, flavin site of complex II (site IIF) (Rattus norvegicus, UniProt Q920L2); assay: Site-specific H2O2 production from site IIF in skeletal muscle mitochondria; assay type: biochemical; settings: 0.5 mM succinate, rotenone, myxothiazol, antimycin A; Fig. 2B
T1 construct: from tissue; host or cells: skeletal muscle mitochondria
Outline: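 Isolated rat skeletal muscle mitochondria; H2O2 read by Amplex UltraRed with added SOD and HRP. Site IF/DH: 5 mM glutamate, 5 mM malate, 4 µM rotenone. Site IIF: palmitoylcarnitine or succinate with rotenone/antimycin A/myxothiazol. Site IIIQo: succinate, rotenone, antimycin A. Screen at 2.5 µM, normalised as % change from DMSO.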

mGPDH [2] = target: T2, mGPDH (Rattus norvegicus, UniProt P35571); assay: Superoxide/H2O2 production by mGPDH in isolated skeletal muscle mitochondria (Amplex UltraRed); assay type: biochemical
T2 construct: Activity of mGPDH in frozen-thawed skeletal muscle mitochondria was measured; from tissue; host or cells: skeletal muscle mitochondria
T2 sequence (P35571 43-727): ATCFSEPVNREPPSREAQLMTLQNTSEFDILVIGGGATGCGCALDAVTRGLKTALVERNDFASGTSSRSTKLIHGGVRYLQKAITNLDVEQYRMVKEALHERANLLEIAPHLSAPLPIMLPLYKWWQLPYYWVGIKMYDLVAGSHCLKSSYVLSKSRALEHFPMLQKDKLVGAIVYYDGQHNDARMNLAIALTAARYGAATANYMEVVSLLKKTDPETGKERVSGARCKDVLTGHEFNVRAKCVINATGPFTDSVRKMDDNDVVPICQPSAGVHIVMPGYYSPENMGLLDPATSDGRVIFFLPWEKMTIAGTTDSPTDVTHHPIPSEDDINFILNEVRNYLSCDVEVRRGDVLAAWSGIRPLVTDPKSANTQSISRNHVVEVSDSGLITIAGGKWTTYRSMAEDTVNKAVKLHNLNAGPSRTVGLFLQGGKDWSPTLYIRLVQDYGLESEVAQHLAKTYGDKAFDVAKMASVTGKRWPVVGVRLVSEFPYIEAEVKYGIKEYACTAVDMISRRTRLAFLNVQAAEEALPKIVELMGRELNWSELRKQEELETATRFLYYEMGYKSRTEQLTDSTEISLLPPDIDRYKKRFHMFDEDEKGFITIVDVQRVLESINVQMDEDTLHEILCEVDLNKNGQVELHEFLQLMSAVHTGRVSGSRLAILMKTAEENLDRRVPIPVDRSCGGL

[3] = tested on: skeletal muscle mitochondria; assay: Mitochondrial membrane potential (ΔΨm, TMRM) powered by succinate; assay type: biochemical, rat; settings: 2.5 mM; 5 mM succinate, rotenone, nigericin
Experimental: Mitochondrial membrane potential (ΔΨm) was estimated fluorimetrically as described previously on the Varian fluorimeter, except the potentiometric dye TMRM was used in quench-mode in place of safranine O [34]. […] The effect of putative small-molecule inhibitors was normalized as the % change in fluorescence between vehicle treatment and complete depolarization by the uncoupler carbonyl cyanide-4-(trifluoromethoxy)phenylhydrazone (FCCP, 2 µM) added at the end of each run. When indicated, the K^+/H^+ exchanger nigericin (80 ng ⋅ ml^−1) was added to collapse the pH gradient across the mitochondrial inner membrane (ΔpH) and maximize ΔΨm.
The assay buffer for both H2O2 and ΔΨm measurements was 120 mM KCl, 5 mM HEPES, 1 mM EGTA, 0.3% (w/v) BSA without or with 250 nM free calcium at pH 7.0. All assays were performed with stirring at 37°C.
Structure/activity analysis was performed on 18 structural analogs of two structurally-related hits from the primary screen (iGP-1 and iGP-2). These 20 compounds were tested in duplicate at 0.08–80 µM (0.1% DMSO final) in microplate format for effects on site-specific H2O2 production as described above. Additionally, four microplate assays for ΔΨm were run in parallel to the H2O2 assays. These assays were as described under “Measurement of mitochondrial H2O2 production and membrane potential” except that each substrate condition was assayed in a separate microplate. […] Plates were incubated in the dark at room temperature for 30–40 min (H2O2) or 10–15 min (ΔΨm) after the addition of substrate, and endpoint fluorescence was measured on the Victor plate reader. Endpoints were chosen for the H2O2 assays to provide good signal-to-noise ratios and linear rates of change without the indicator dye limiting the reaction. Endpoints for the ΔΨm assays were determined in pilot experiments as the times for TMRM accumulation to reach a steady state. […] Endpoint fluorescence values were normalized as described in the previous section with wells containing FCCP serving as positive controls for the ΔΨm assays.

[4] = tested on: skeletal muscle mitochondria; assay: Mitochondrial membrane potential (ΔΨm, TMRM) powered by glycerol phosphate; assay type: biochemical, rat; settings: 16.7 mM glycerol phosphate
[5] = tested on: ubiquinone-binding site of complex I (site IQ); assay: Site-specific H2O2 production from site IQ in skeletal muscle mitochondria; assay type: biochemical, rat; settings: 80 μM; 5 mM succinate;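 note: H2O2 from superoxide detected by Amplex UltraRed fluorescence with added superoxide dismutase and horseradish peroxidase, endpoint read 30–40 min after substrate addition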
mGPDH [6] = target: T2, mGPDH; assay: mGPDH enzymatic activity (DCPIP-linked reduction by glycerol phosphate) in frozen-thawed skeletal muscle mitochondria; assay type: biochemical
Experimental: Activity of mGPDH in frozen-thawed skeletal muscle mitochondria was measured as 2,6-dichlorophenolindophenol (DCPIP)-linked reduction by glycerol phosphate as described previously in the presence of 1 µM free calcium. Linear rates of change in absorbance (λ = 600 nm) were measured on the PHERAstar microplate reader and converted to rates of DCPIP reduction using an extinction coefficient of 21 mM^−1 ⋅ cm^−1 and a calculated pathlength of 0.6 cm. Kinetic parameters and inhibitor constants were determined by co-varying glycerol phosphate and novel inhibitors according to recommended procedures and calculated for each data set using GraphPad Prism. Vmax and Km were determined using hyperbolic curves fit to the Michaelis-Menten equation: rate = (Vmax ⋅ [substrate]) ⋅ (K m+[substrate])^ −1. Hill Slope and IC50 were determined using unconstrained, sigmoidal dose-response curve fits of % remaining activity against concentration of iGP. K ic and K iu were determined using plots of rate^−1 vs iGP and GP ⋅ rate^−1 vs iGP, respectively. Linear regression analysis yielded an average x-coordinate at which the best-fit lines intersect. These x-coordinates correspond to -K ic and -K iu in their respective plots. The apparent Vmax of mGPDH is dependent upon the concentration of DCPIP used, [38]. Therefore, to determine the maximal activity of mGPDH in isolated synaptosomes, DCPIP was replaced by 1 mM potassium ferricyanide and linear rates of change in absorbance (λ = 420 nm) were converted to rates of ferricyanide reduction using an extinction coefficient of 1.04 mM^−1 ⋅ cm^−1 and a calculated pathlength of 0.6 cm.

[7] = tested on: skeletal muscle mitochondria; assay: Mitochondrial respiration (Seahorse XF24) in plate-attached skeletal muscle mitochondria; assay type: biochemical, rat
Experimental: The effects of small-molecule inhibitors on respiration were tested in plate-attached skeletal muscle mitochondria using a Seahorse XF24 Analyzer according to published protocols. Briefly, mitochondria (2 or 4 µg protein) were attached to Seahorse assay plates by centrifugation in a mannitol and sucrose-based medium (Seahorse MAS buffer) containing 0.3% (w/v) BSA without or with 250 nM free calcium at pH 7.0. […] Compounds were added in these media just prior to loading the assay plate into the Seahorse instrument. Additions were made to set respiration in basal state 2 (substrate only), phosphorylating state 3 (5 mM ADP), non-phosphorylating state 4o (0.5 ug ⋅ mL^−1 oligomycin), and to reveal the non-mitochondrial rate (2 µM myxothiazol and 2.5 µM antimycin A). Each concentration of compound was tested in at least two wells on each plate. At least three biological replicates of each titration in each substrate condition were performed.

[8] = tested on: skeletal muscle mitochondria; assay: Mitochondrial membrane potential (ΔΨm, TMRM) powered by glutamate plus malate; assay type: biochemical, rat

T1 sequence (Q920L2 35-656): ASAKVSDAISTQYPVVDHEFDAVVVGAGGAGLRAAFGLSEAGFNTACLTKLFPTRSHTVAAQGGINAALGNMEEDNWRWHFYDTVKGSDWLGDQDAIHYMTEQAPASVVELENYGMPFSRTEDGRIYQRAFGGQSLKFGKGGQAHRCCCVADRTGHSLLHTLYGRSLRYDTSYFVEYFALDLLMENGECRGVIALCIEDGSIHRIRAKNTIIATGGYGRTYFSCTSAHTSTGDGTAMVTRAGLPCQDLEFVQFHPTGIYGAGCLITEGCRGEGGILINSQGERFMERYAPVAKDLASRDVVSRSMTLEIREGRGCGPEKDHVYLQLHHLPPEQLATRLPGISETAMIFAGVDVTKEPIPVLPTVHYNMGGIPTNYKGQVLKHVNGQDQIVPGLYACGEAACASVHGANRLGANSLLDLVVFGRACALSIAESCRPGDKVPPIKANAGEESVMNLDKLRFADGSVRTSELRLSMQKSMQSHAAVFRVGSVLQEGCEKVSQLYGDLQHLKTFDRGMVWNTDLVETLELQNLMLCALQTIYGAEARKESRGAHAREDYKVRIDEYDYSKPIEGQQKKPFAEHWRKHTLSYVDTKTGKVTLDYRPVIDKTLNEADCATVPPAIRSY
T1 sequence (P21913 31-282 partner): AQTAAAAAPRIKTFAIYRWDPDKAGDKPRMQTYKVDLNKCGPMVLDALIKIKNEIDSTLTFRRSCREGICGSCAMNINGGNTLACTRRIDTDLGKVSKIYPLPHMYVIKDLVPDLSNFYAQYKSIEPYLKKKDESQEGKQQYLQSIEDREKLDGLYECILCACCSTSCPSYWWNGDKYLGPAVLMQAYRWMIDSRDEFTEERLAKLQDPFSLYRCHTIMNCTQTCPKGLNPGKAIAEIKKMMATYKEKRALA
T1 sequence (Q641Z9 30-169 partner limits assumed): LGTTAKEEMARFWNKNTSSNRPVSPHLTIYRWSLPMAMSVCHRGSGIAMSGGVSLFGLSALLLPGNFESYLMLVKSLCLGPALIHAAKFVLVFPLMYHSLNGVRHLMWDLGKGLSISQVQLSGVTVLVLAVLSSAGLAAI
T1 sequence (Q6PCT8 57-159 partner): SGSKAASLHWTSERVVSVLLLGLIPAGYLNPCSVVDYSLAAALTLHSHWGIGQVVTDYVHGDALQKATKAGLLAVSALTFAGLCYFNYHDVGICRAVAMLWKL

SMILES: NOCC(=O)O [aminooxyacetate, reference compound]
effect on basal or maximal respiration with pyruvate (cortical synaptosomes; 10 mM pyruvate): no effect | effect on basal and maximal respiration with glucose (cortical synaptosomes; 15 mM glucose, no oxamate): inhibited

effect on the rate of H2O2 production from site IIF [1]: significantly inhibited | inhibition at 2500 µM (mGPDH [2]; 2.5 mM, 1.7 mM glycerol phosphate, 250 nM free calcium, read-out: inhibition of the rate of H2O2 production from mGPDH): ~80%
SMILES: O=CC(O)COP(=O)(O)O (stereo not shown) [glyceraldehyde 3-phosphate, reference compound]
effect on ΔΨm powered by succinate [3]: significantly increased | effect on ΔΨm powered by glycerol phosphate ([4]; all concentrations tested, rotenone, atpenin A5, nigericin): significantly decreased

IC50 (mGPDH [2]; Fig. 4 structure/activity microplate assay, 0.08–80 µM, estimated, means of two replicates, read-out: mGPDH H2O2 production IC50): 700 nM | IC50 (mGPDH [2]; Fig. 9B, read-out: mGPDH H2O2 Production IC50): 1000 ± 100 nM | inhibition at 80 µM (mGPDH [2]; read-out: mGPDH H2O2 production (% change at 80 μM)): 65% | IC50 (mGPDH [2]; titration up to 80 µM (Fig. 6B, Fig. 7B), read-out: half-maximal effect on H2O2 production by mGPDH): ~1000 nM | mGPDH Activity Hill Slope (mGPDH [6]; 1 µM free calcium): 0.85 and 0.85±0.07 | IC50 (mGPDH [6]; 1 µM free calcium, Fig. 9A): 1000 ± 200 nM | K iu (uncompetitive inhibitor dissociation constant) (mGPDH [6]; co-varying glycerol phosphate and inhibitor): 1.1 ± 0.0 µM | Ki (mGPDH [6]; co-varying glycerol phosphate and inhibitor, read-out: K ic (competitive inhibitor dissociation constant)): 700 nM
SMILES: O=C(O)CCC(=O)Nc1ccc(-c2nc3cc4ccccc4cc3[nH]2)cc1 [iGP-5]
IQ H2O2 production with 5 mM Suc (% change at 80 μM) [5]: -9% | effect on state 3 respiration with pyruvate and malate ([7]; 80 µM): significantly reduced | effect on glycerol phosphate-dependent state 3 respiration ([7]; 25 and 80 µM): significantly decreased | ΔΨm with GP + Nig (% change at 80 μM) ([4]; 80 μM, 4 µM rotenone, nigericin): -26% | effect on ΔΨm powered by glycerol phosphate ([4]; 2.5 and 25 µM): significantly decreased | effect on ΔΨm powered by glutamate and malate ([8]; 25 µM, only in the absence of nigericin): significantly increased | ΔΨm with Glu + Mal + Nig (% change at 80 μM) ([8]; 80 μM, 5 mM glutamate, 5 mM malate, with nigericin): 20% | ΔΨm with Glu + Mal (% change at 80 μM) ([8]; 80 μM, 5 mM glutamate, 5 mM malate, without nigericin): 106%
